These results are taken from DBAASP.

Each structure is given as a SMILES string. Values after ≈ are worked out from the molar mass of the structure shown.

Among the test systems are Bacillus cereus IFO 3514; Candida boidinii MIP 104; Bacteroides fragilis; Clostridium septicum; Cutibacterium acnes; Fusobacterium nucleatum.
What all share (test): ≥ marks a high value that may be exact or a test limit, other limits are often not marked, values filed in µg/mL are converted to µM
Assay [1] relates to Agrobacterium tumefaciens LBA 4404.
For assay [2], the system named is Aspergillus niger IFO 4416.
For assay [3], the system named is Bacillus subtilis IFO 3336.
In assay [4] the test system is Candida albicans IFO 1385.
The test system of assay [5] is Enterococcus faecalis JCM 8726.
The subject of assay [6] is Escherichia coli IFO 3301.
Assay [7] has as its system Geobacillus stearothermophilus IFO12550.
Assay [8] has as its system Kitasatospora kifunensis MN1.
Assay [9] deals with Levilactobacillus brevis IFO 3345.
Assay [10] relates to Pseudomonas aeruginosa IFO 3445.
In assay [11] the test system is Saccharomyces cerevisiae KK4.
Assay [12] has as its system Salmonella typhimurium IFO 12529.
Assay [13] deals with Staphylococcus aureus ATCC 33591.
The subject of assay [14] is Staphylococcus aureus IFO 13276.
Assay [15] deals with Bacteroides fragilis ATCC 25285.
Assay [16] deals with Candida albicans ATCC 90028.
The subject of assay [17] is Clostridium perfringens ATCC 10543.
Assay [18] concerns Clostridium tertium ATCC 19465.
Assay [19] concerns Cutibacterium acnes ATCC 11828.
The test system of assay [20] is Enterobacter cloacae HNTCC 53001.
Assay [21] relates to Enterococcus faecalis ATCC 29212.
Assay [22] relates to Escherichia coli ATCC 25922.
The test system of assay [23] is Fusobacterium varium ATCC 27725.
Assay [24] concerns Klebsiella pneumoniae KK3 9904.
Assay [25] concerns Peptoniphilus asaccharolyticus ATCC 29743.
Assay [26] concerns Peptostreptococcus anaerobius.
Assay [27] has as its system Prevotella melaninogenica.
Assay [28] concerns Proteus mirabilis ATCC 25933.
The test system of assay [29] is Pseudomonas aeruginosa ATCC 27853.
Assay [30] deals with Salmonella enterica subsp. enterica serovar Typhimurium LT2.
Assay [31] concerns Staphylococcus aureus NCTC 8325.
The subject of assay [32] is Staphylococcus aureus T27/9.
Assay [33] has as its system Staphylococcus aureus T7/20.
Assay [34] deals with Staphylococcus aureus T7/5.
Assay [35] has as its system Staphylococcus epidermidis RP62A.

Take `NC(N)=NCCC[C@H](NC(=O)[C@H](Cc1cnc[nH]1)NC(=O)[C@H](CCCN=C(N)N)NC(=O)[C@H](Cc1cnc[nH]1)NC(=O)[C@H](CCCN=C(N)N)NC(=O)[C@H](Cc1cnc[nH]1)NC(=O)[C@H](CCCN=C(N)N)NC(=O)[C@H](Cc1cnc[nH]1)NC(=O)[C@@H](N)CCCN=C(N)N)C(=O)N[C@@H](Cc1cnc[nH]1)C(=O)O` [RHRHRHRHRH]: the MIC in assay [1] is 6.74 µM (≈ 10 µg/mL); in assay [2] it was at least 33.7 µM; with Bacillus cereus IFO 3514 it was at least 269 µM; in [3] it was 6.74 µM (≈ 10 µg/mL); in assay [4], at least 67.4 µM; against Candida boidinii MIP 104, 6.74 µM (≈ 10 µg/mL). The minimum inhibitory concentration (MIC) in [5] was 6.74 µM (≈ 10 µg/mL); in assay [6], 6.74 µM (≈ 10 µg/mL); in [7], 6.74 µM (≈ 10 µg/mL); in assay [8], at least 269 µM; in assay [9] it was 6.74 µM (≈ 10 µg/mL); in assay [10], 6.74 µM (≈ 10 µg/mL). The MIC in assay [11] is at least 67.4 µM; in [12] it was at least 101 µM; in assay [13] it was at least 33.7 µM; in assay [14] it was at least 33.7 µM.

In the case of `CC[C@H](C)[C@H](NC(=O)[C@H](CO)NC(=O)[C@H](CO)NC(=O)[C@H](CC(C)C)NC(=O)[C@@H](N)Cc1ccccc1)C(=O)NCC(=O)N[C@@H](CCCCN)C(=O)N[C@H](C(=O)N[C@@H](CC(C)C)C(=O)NCC(=O)N[C@@H](CC(N)=O)C(=O)N[C@@H](CC(C)C)C(=O)N[C@@H](CC(C)C)C(N)=O)[C@@H](C)CC` [FLSSIGKILGNLL], the MIC in [15] is at least 50 µM; with Bacteroides fragilis, at least 50 µM; in assay [16], at least 160 µM; in [17], 25 µM (≈ 34.3 µg/mL); in the assay with Clostridium septicum, at least 50 µM; in assay [18], 12.5 µM (≈ 17.2 µg/mL). Besides, the MIC in assay [19] was 6 µM (≈ 8.24 µg/mL); in the assay on Cutibacterium acnes, 12.5 µM (≈ 17.2 µg/mL); in [20] it was at least 40 µM; in assay [21] it was 40 µM (≈ 54.9 µg/mL); in assay [22], 40 µM (≈ 54.9 µg/mL); in the assay with Fusobacterium nucleatum, at least 50 µM. The MIC in assay [23] was at least 50 µM; in assay [24], at least 80 µM; in assay [25], at least 50 µM; in assay [26], 25 µM (≈ 34.3 µg/mL); in assay [27], 25 µM (≈ 34.3 µg/mL); in [28] it was at least 100 µM. Also, the MIC in assay [29] was 160 µM (≈ 220 µg/mL); in assay [30], at least 50 µM; in [31] it was 10 µM (≈ 13.7 µg/mL); in assay [32] it was at least 40 µM; in [33], 20 µM (≈ 27.5 µg/mL); in [34], 20 µM (≈ 27.5 µg/mL). Further, in [35], the MIC was 20 µM (≈ 27.5 µg/mL).
